Reference: patent US20100197608A1, “USE OF MELANOTROPHIN-POTENTIATING FACTOR AS A THERAPEUTIC AGENT” (priority 2007, published 2010)
Where a SMILES comes first, the peptide text is derived from it.

System: drug-resistant Mycobacterium tuberculosis
Conditions: drug-resistant Mycobacterium tuberculosis growth; peptide 10 micrograms per ml; seven days

NCCCC[C@H](NC(=O)[C@@H](N)CCCCN)C(=O)NCC(=O)N[C@@H](CCC(=O)O)C(=O)O [MPF, Lys-Lys-Gly-Glu-OH] (H-KKGE-OH)
% inhibition: 0.0%
